The text below walks through data of article PMC6037779, “Repurposing drugs to target the malaria parasite unfolding protein response” (Scientific Reports, 2018).

One test has as its target T1, PfGRP78-NBD wt (Plasmodium falciparum, UniProt Q05866).
T1 construct: His-tag (pET28-MHL, TEV site) (N, cleaved yes); made in house; host or cells: E. coli BL21(DE3)
The test is described as follows: biochemical. The format is binding. As for the experimental part:
To quantify the binding affinities of PfGRP78-NBD for the selected compounds, dissociation constants (Kd) were determined by surface plasmon resonance (SPR). […] Purified PfGRP78-FL, PfGRP78-NBD wild-type and mutant, and human GRP78-NBD were immobilized on a CM5 sensorchip using NHS/EDC coupling following the manufacturer protocol to a level of <10,000 RUs, a reference surfaces without immobilized proteins served as a control for nonspecific binding and refractive index changes. […] The running buffer was 10 mM HEPES, pH 7.4, 150 mM NaCl, 0.005% P20, 1% DMSO and 2 mM MgCl2. Buffer only injections were used as blanks. The Biacore responses recorded during the 30 seconds of the injection were used to estimate the association constant (kon) and the 300 seconds after the injection were used to estimate the dissociation constant (koff). All dissociation and kinetic constants were estimated using double subtracted sensorgrams[40] using BiaEvaluation Software (GE Healthcare). All the reported parasite dissociation constants (Kd) were estimated with affinity analysis, and all the reported human Kds were calculated from kinetic constants.

Test [1] deals with Plasmodium falciparum 3D7. The test is described as follows: In vitro growth inhibition assay (SYBR Green I), strain 3D7. The format is cell-based. The following applies: Plasmodium falciparum, 3D7; chloroquine-sensitive strain; 72 hours; average of three ± SD; read-out: EC50, growth inhibition, P. falciparum 3D7. As for the experimental part: (§1) A major goal of our study was to evaluate the drug target potential of P. falciparum GRP78, thus we evaluated the effect of the chaperone inhibition on the malaria parasite. Our approach took advantage of several GRP78 inhibitors (Fig. 3a) previously characterized against human cancer cell lines, which were commercially available[20],[24]–[27]. These compounds were tested against two different parasite strains with opposite sensitivity towards the antimalarial drug chloroquine, 3D7 (sensitive) and W2 (resistant). […] A synchronized P. falciparum culture, with over 80% ring forms, was used in the growth inhibition assay. Each strain was assayed at 0.5% parasitaemia and 1.5% hematocrit. A 190 µL aliquot of parasite culture was dispensed per well to microplates that were pre-dispensed with the compounds at various dilutions. […] Dilutions of GRP78 inhibitors and DHA were prepared in water with a final concentration of DMSO below 0.05% (v/v). […] After incubation, the plates were subject to a freeze-thaw cycle (−80 °C) and the parasite growth was quantified by the SYBR Green I method as previously described. Briefly, 100 µl of homogenized parasite culture was transferred into 96-well black plates. 100 µl of SYBR Green lysis buffer (2x SYBR Green I, 100 mM Tris-HCl pH 7.5, 10 mM EDTA, 0.016% Saponin and 1.6% Triton X-100) were added to each well. The plates were incubated at room temperature in darkness for 1 hour.
(§2) Growth inhibition experiments were conducted at least three times per compound. […] The statistical analysis was performed with the software Prism 7 (GraphPad Software, San Diego, CA).

In a further test the test system is Plasmodium falciparum W2. Description: In vitro growth inhibition assay (SYBR Green I), strain W2. The format is cell-based. The following applies: Plasmodium falciparum, W2; chloroquine-resistant strain; 72 hours; average of three ± SD; read-out: EC50, growth inhibition, P. falciparum W2. The procedure:
as §1, §2

The next test deals with HCT-116. The test is described as follows: Growth inhibition of human cell line. The test is classed as cell-based. As for the experimental part:
as §2

The target of the next test is T2, PfGRP78-NBD Y39F (Plasmodium falciparum, UniProt Q05866, Y39F).
T2 construct: His-tag (pET28-MHL, TEV site) (N, cleaved yes); made in house; host or cells: E. coli BL21(DE3)
T2 sequence (Q05866 26-404 Y39F): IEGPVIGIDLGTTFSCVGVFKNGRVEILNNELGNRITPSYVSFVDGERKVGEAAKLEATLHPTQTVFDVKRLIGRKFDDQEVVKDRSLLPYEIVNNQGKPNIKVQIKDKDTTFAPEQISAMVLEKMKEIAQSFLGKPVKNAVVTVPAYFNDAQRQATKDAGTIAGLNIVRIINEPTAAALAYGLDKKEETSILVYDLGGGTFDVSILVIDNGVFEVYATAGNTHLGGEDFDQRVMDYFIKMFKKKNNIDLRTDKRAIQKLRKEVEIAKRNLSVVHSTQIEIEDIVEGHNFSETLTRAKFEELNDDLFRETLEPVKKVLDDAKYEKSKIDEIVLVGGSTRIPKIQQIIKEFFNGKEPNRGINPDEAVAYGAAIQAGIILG
Description: DSF thermal shift, PfGRP78-NBD Y39F mutant. The format is binding. The procedure: Initially, their binding was determined using a DSF (Differential Scanning Fluorimetry) assay. In this assay, an interaction between the chaperone and a compound was measured as a change in the protein’s melting temperature (Tm), by subtracting the Tm of the protein by itself to the melting value of the protein in the presence of the compound. Differences above or below 1 °C between the melting temperatures (ΔTm) were considered indicative of a protein-compound interaction.
DSF screening was carried out using a CFX96 Touch Real-Time PCR Detection System (BioRad, California). The PfGRP78-FL, PfGRP78-NBD wild type and mutant, and human GRP78-NBD were buffered in 25 mM hepes pH 7.5, 250 mM NaCl and assayed in a 96-well format. The final concentration of the protein sample was optimized between 0.05 and 0.2 mg/ml for each protein. The concentration was optimized for each protein to avoid saturation of the fluorescence detector. The GRP78 inhibitors were used at a final concentration of 0.5 mM. SYPRO Orange (Life Technologies, USA) was added as a fluorescence probe in a dilution of 1:1000.

For a further test, the target named is T3, PfGRP78 (Plasmodium falciparum, UniProt Q05866).
T3 construct: endogenous in cells; host or cells: P. falciparum W2 culture in human red blood cells
T3 sequence (Q05866 25-652): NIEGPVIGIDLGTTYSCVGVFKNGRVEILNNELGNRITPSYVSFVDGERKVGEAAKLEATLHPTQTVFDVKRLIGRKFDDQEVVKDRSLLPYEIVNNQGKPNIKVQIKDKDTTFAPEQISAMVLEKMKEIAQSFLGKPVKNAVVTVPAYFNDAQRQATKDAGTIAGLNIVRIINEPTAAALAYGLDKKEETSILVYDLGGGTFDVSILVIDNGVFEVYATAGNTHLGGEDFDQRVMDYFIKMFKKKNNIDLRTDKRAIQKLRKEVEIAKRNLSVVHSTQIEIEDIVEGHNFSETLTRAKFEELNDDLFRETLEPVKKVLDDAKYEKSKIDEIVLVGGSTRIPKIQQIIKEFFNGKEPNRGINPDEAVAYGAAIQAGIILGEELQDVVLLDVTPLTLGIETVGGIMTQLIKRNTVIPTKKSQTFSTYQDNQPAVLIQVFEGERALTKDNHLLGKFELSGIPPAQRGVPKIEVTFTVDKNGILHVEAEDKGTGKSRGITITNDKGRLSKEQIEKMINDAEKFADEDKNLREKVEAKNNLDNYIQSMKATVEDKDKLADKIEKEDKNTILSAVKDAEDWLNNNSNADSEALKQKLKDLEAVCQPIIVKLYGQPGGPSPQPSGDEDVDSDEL
The test is described as follows: PfGRP78 protein levels by immuno-blot after exposure of P. falciparum W2 culture. The test is classed as cell-based. As for the experimental part: Culture aliquots were taken at several time points and the PfGRP78 levels of were evaluated by immuno-blots (Fig. 4). […] Thus, providing further support to the notion that Apoptozole antiplasmodial activity is mediated by its effect on PfGRP78.
A 55 ml suspension of ring-stage P. falciparum W2 parasites at 1.5% parasitaemia and 1.5% of hematocrit were split into 11 culture dishes of 5 ml each. One culture plate was served as a starting point (0 h) and of the remaining ten culture plates, half were exposed to 45 µM Apoptozole and half to DMSO 0.09% for 6 h. After 6 h the Apoptozole or DMSO were removed by washing the parasite culture with complete media twice. Culture dishes contained control (DMSO) and Apoptozole treated parasites were incubated at 37 °C in 5% O2 and 5% CO2 atmosphere throughout the duration of the experiment. One of each control and treated group were harvest at times 1, 3, 6, 24 and 48 hours. Samples were processed by harvesting the red blood cell using centrifugation 5 min at 5000 g and washed twice with PBS 1 × 5000 g for 1 min at 4 °C. The pellet was resuspended in 1 ml of 0.02% saponin-PBS solution (Sigma, Aldrich) and centrifuged 10 min 11000 g at 4 °C. The parasite pellet was washed twice with PBS and resuspended in 100 µl PBS. A 30 µl sample was mixed with 30 µl of Laemlii lysis buffer (BioRad) and 3 µl 14.1 M 2-mercaptoethanol (BioRad) and boiled for 10 min. […]

T1 sequence (Q05866 26-404): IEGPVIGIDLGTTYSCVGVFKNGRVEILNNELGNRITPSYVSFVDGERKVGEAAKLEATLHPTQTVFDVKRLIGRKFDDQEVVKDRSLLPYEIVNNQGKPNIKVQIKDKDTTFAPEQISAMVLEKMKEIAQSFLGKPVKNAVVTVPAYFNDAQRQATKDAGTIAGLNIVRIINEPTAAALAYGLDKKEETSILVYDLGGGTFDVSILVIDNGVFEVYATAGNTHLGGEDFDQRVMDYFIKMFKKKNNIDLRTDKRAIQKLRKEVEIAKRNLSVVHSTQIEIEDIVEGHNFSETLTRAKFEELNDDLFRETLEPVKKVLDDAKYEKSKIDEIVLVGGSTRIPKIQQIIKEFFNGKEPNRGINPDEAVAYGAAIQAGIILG

As a reminder, the Kd is the constant that tells how readily two partners part at equilibrium. The term EC50 denotes the concentration at which the effect is half-maximal. `COc1ccc(-c2nc(-c3cc(C(F)(F)F)cc(C(F)(F)F)c3)n(Cc3ccc(C(N)=O)cc3)c2-c2ccc(OC)cc2)cc1` [Apoptozole] had a Kd on PfGRP78-NBD wt of 4.27 ± 0.86 µM. The EC50 came to 6.8 ± 1.4 µM in test [1]; 4.5 ± 0.4 µM in the test with Plasmodium falciparum W2; 16.5 ± 12.8 µM in the test with HCT-116 (HCT-116, human cell line, average of three ± SD, read-out: EC50, growth inhibition, HCT-116). Moreover, in the test with HCT-116 (HCT-116 vs P. falciparum EC50, Results text b30), the “times more selective towards P. falciparum” value is on record as 2.9 times. The “DSF binding to PfGRP78-NBD Y39F” value on PfGRP78-NBD Y39F was “failed to bind”. Further, the “PfGRP78 levels, first 6 hours” value on PfGRP78 (45 µM (10xEC50) for 6 h) is on record as “did not changed”. The “PfGRP78 levels, 24 and 48 h time points” value on PfGRP78 (45 µM (10xEC50) for 6 h then washed) is recorded as “clear reduction”.
